The target of one series is T1, human mGluR2 receptor (Homo sapiens, UniProt Q14416).
T1 construct: expressed in transfected cells; host or cells: CHO cells (membrane preparation)
Nature of the series: [35S]GTPγS binding assay (GTPγS-PAM): positive allosteric modulation in presence of glutamate at EC25, membranes from transfected CHO cells. The class given is biochemical. Particulars: in presence of mGluR2 agonist glutamate at predetermined EC25 concentration, averages of duplicate values of 11-concentration response curves, read-out: GTPgS - hR2 PAM pEC50 (converted). The method in brief:
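Potentiation was read as filter-retained [35S]GTPγS (0.1 nM final, 30 min, 30° C.) after a 30 min, 30° C. preincubation of human mGluR2 CHO membranes (15 μg/well) with EC25 glutamate and 11 modulator concentrations spanning 0.3 nM-50 μM. The buffer was 50 mM HEPES pH 7.4, NaCl, MgCl2, 50 μM GDP and saponin. Cold 10 μM GTP defined nonspecific binding; data were fitted by a four-parameter logistic.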
Background: Binding of GTPγS marks nucleotide exchange on a G protein.

Usually melting point stands for the temperature, or range, at which the solid turns liquid.

T1 sequence (Q14416 19-872): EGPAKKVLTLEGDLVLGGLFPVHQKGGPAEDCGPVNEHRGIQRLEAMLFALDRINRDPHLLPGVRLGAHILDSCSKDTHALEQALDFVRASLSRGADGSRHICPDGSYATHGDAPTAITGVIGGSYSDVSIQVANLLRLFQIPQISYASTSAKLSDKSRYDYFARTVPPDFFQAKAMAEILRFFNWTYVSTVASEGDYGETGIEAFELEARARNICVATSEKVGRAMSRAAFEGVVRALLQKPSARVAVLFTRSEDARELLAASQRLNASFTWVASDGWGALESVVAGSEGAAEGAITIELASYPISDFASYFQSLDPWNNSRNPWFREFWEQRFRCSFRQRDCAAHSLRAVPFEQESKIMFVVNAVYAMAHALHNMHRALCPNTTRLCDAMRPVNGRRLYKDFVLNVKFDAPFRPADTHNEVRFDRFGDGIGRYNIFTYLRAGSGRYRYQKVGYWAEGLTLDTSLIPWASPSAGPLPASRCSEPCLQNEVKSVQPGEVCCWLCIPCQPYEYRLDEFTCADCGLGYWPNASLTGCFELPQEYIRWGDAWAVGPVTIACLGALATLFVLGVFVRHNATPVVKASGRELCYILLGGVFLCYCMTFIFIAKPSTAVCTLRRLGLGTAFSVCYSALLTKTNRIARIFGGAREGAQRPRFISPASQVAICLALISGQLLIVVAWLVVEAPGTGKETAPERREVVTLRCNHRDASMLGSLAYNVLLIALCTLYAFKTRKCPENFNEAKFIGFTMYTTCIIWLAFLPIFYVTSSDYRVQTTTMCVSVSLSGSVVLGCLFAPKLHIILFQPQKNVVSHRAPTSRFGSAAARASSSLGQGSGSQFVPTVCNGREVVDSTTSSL

The molecule `COCc1cccc(-c2ccn(CCC(C)C)c(=O)c2C#N)c1` [1-107] had a melting point of 67 °C. In addition, the EC50 on human mGluR2 receptor is 3160 nM.
For `COc1ccc(-c2ccn(CCC(C)C)c(=O)c2C#N)cc1OC` [1-110, 4-(3,4-dimethoxyphenyl)-3-cyano-1-(3-methylbutyl)pyridine-2(1H)-one], the melting point turned out to be 52 °C. In addition, at human mGluR2 receptor, the EC50 is 2510 nM.
In the same order, the values of `CC(C)CCn1ccc(-c2ccc(OC(C)C)cc2)c(C#N)c1=O` [1-111] are 129 °C and 316 nM.
As to `COc1ccc(-c2ccn(CCC(C)C)c(=O)c2C#N)cc1Cl` [1-112], the melting point was 149 °C. The EC50 on human mGluR2 receptor is 316 nM.
`COc1ccc(-c2ccn(CCC(C)C)c(=O)c2C#N)c(F)c1` [1-113, 3-cyano-4-(2-fluoro-4-methoxyphenyl)-1-(3-methylbutyl)pyridine-2(1H)-one] yielded a melting point of 65 °C. Further, the EC50 at human mGluR2 receptor was 631 nM.
Take `COc1ccc(-c2ccn(CCC(C)C)c(=O)c2C#N)cc1F` [1-114, 3-cyano-4-(3-fluoro-4-methoxyphenyl)-1-(3-methylbutyl)pyridine-2(1)-one]: the melting point turned out to be 133 °C. The EC50 at human mGluR2 receptor is 1000 nM.
In the same order, the values of `CCC(C)Oc1ccc(-c2ccn(CCC(C)C)c(=O)c2C#N)cc1F` (stereo not drawn) [1-115] are 154 °C and 100 nM.
In turn, `CC(C)CCn1ccc(-c2ccc(OC(C)C)c(Cl)c2)c(C#N)c1=O` [1-117] had a melting point of 166 °C. The EC50 at human mGluR2 receptor is 63.1 nM.
On to `CC(C)CCn1ccc(-c2ccc(OC(F)(F)F)cc2)c(C#N)c1=O` [1-120], for which the melting point is 122 °C. For the same molecule, at human mGluR2 receptor, the EC50 was 501 nM.
In the same order, the values of `CC(C)CCn1ccc(-c2ccc(OCC(F)F)c(Cl)c2)c(C#N)c1=O` [1-122] are 131 °C and 1000 nM.
As for `CC(C)CCn1ccc(-c2ccc(OCC(F)(F)F)c(Cl)c2)c(C#N)c1=O` [1-123], the melting point was 189 °C. In addition, the EC50 on human mGluR2 receptor was 158 nM.
The molecule `CC(=O)NCCOc1ccc(-c2ccn(CCC(C)C)c(=O)c2C#N)cc1` [1-128] gave a melting point of 107 °C. Besides, at human mGluR2 receptor, the EC50 was 3160 nM.
Take `CC(C)CCn1ccc(-c2ccc(OCC#N)cc2)c(C#N)c1=O` [1-131]: the melting point was 132 °C. For the same molecule, the EC50 on human mGluR2 receptor was 2510 nM.
In turn, `CC(C)CCn1ccc(-c2ccc(OCC3CC3)c(Cl)c2)c(C#N)c1=O` [1-134] displayed a melting point of 294 °C. Also, on human mGluR2 receptor, the EC50 was 79.4 nM.
For `COc1cccc(Oc2ccc(-c3ccn(CCC(C)C)c(=O)c3C#N)cc2)c1` [1-143], in that order: 118 °C and 79.4 nM.
The molecule `COc1cccc(COc2ccc(-c3ccn(CCC(C)C)c(=O)c3C#N)cc2)c1` [1-144] had a melting point of 100 °C. Further, the EC50 on human mGluR2 receptor was 63.1 nM.
For `COc1ccc(COc2ccc(-c3ccn(CCC(C)C)c(=O)c3C#N)cc2)cc1` [1-145], in that order: 212 °C and 39.8 nM.
Turning to `CC(C)CCn1ccc(-c2ccc(OCc3cccc(F)c3)cc2)c(C#N)c1=O` [1-146], the melting point came out at 139 °C. In addition, the EC50 on human mGluR2 receptor is 63.1 nM.
Turning to `CC(C)CCn1ccc(-c2ccc(OCc3ccc(F)cc3)cc2)c(C#N)c1=O` [1-147], the melting point is 146 °C. Also, at human mGluR2 receptor, the EC50 is 79.4 nM.
The molecule `CC(C)CCn1ccc(-c2ccc(OCc3ccccc3)c(F)c2)c(C#N)c1=O` [1-148] gave a melting point of 173 °C. Also, on human mGluR2 receptor, the EC50 was 50.1 nM.
In the same order, the values of `CC(C)CCn1ccc(-c2ccc(OCc3cccc(Cl)c3)cc2)c(C#N)c1=O` [1-149] are 120 °C and 50.1 nM.
For `CC(C)CCn1ccc(-c2ccc(OCc3ccccc3)c(Cl)c2)c(C#N)c1=O` [1-150], in that order: 177 °C and 79.4 nM.
Take `CC(C)CCn1ccc(-c2ccc(OCc3cccc(C#N)c3)cc2)c(C#N)c1=O` [1-151]: the melting point is 154 °C. The EC50 on human mGluR2 receptor is 39.8 nM.
`CC(C)CCn1ccc(-c2ccc(Oc3ccc(C#N)cc3)cc2)c(C#N)c1=O` [1-152] had a melting point of 193 °C. For the same molecule, the EC50 on human mGluR2 receptor was 100 nM.
Turning to `CC(C)CCn1ccc(-c2ccc(OCc3ccc(C#N)cc3)cc2)c(C#N)c1=O` [1-153], the melting point was 171 °C. For the same molecule, the EC50 at human mGluR2 receptor is 50.1 nM.
In the same order, the values of `CC(C)CCn1ccc(-c2ccc(Oc3cccnc3)cc2)c(C#N)c1=O` [1-155] are 132 °C and 501 nM.
Molecule `CC(C)CCn1ccc(-c2ccc(Oc3ccncc3)cc2)c(C#N)c1=O` [1-156] returned a melting point of 139 °C. Besides, the EC50 on human mGluR2 receptor is 501 nM.
`CC(C)CCn1ccc(-c2ccc(OCc3ccccn3)cc2)c(C#N)c1=O` [1-157] gave a melting point of 162 °C. The EC50 on human mGluR2 receptor was 398 nM.
With `CC(C)CCn1ccc(-c2ccc(OCc3cccnc3)cc2)c(C#N)c1=O` [1-158], the melting point was 142 °C. Moreover, at human mGluR2 receptor, the EC50 is 501 nM.
The molecule `CC(C)CCn1ccc(-c2ccc(OCc3ccncc3)cc2)c(C#N)c1=O` [1-159] came in with a melting point of 171 °C. Further, the EC50 at human mGluR2 receptor was 501 nM.
`CC(C)CCn1ccc(-c2ccc(OCc3ccncc3)cc2F)c(C#N)c1=O` [1-162]: the melting point was 156 °C. Further, the EC50 at human mGluR2 receptor was 398 nM.
Take `CC(C)CCn1ccc(-c2ccc(OCc3ccc(C(F)(F)F)nc3)cc2)c(C#N)c1=O` [1-163]: the melting point was determined as 202 °C. In addition, the EC50 on human mGluR2 receptor is 79.4 nM.
Molecule `CC(C)CCn1ccc(-c2ccc(OCc3ccc(Cl)nc3)cc2)c(C#N)c1=O` [1-164] showed a melting point of 165 °C. Moreover, the EC50 at human mGluR2 receptor was 158 nM.
For `Cc1nc(COc2ccc(-c3ccn(CCC(C)C)c(=O)c3C#N)cc2)cs1` [1-169], in that order: 144 °C and 501 nM.
The molecule `CNc1ccc(-c2ccn(CCC(C)C)c(=O)c2C#N)cc1` [1-171] showed a melting point of 189 °C. The EC50 at human mGluR2 receptor was 501 nM.
The molecule `CC(C)CCn1ccc(-c2ccc(N(C)C)cc2)c(C#N)c1=O` [1-172] yielded a melting point of 137 °C. In addition, the EC50 at human mGluR2 receptor was 126 nM.
In the same order, the values of `CC(C)CCn1ccc(-c2ccc(CN(C)C)cc2)c(C#N)c1=O` [1-173] are 130 °C and 6310 nM.
In turn, `CC(=O)Nc1ccc(-c2ccn(CCC(C)C)c(=O)c2C#N)cc1` [1-176] showed a melting point of 198 °C. The EC50 at human mGluR2 receptor was 5010 nM.
For `CC(=O)N(C)Cc1ccc(-c2ccn(CCC(C)C)c(=O)c2C#N)cc1` [1-177], in that order: 112 °C and 3980 nM.
In turn, `CC(=O)NCc1ccc(-c2ccn(CCC(C)C)c(=O)c2C#N)cc1` [1-179, 4-(4-(N-acetylmethyl)phenyl)-3-cyano-1-(3-methylbutyl)pyridine-2(1H)-one] came in with a melting point of 144 °C. Moreover, the EC50 on human mGluR2 receptor was 3160 nM.
In turn, `CC(C)CCn1ccc(-c2ccc(NCC#N)cc2)c(C#N)c1=O` [1-186] returned a melting point of 269 °C. The EC50 at human mGluR2 receptor is 794 nM.
`CC(C)CCn1ccc(-c2ccc(NCCC3(C)OCCO3)cc2)c(C#N)c1=O` [1-192] showed a melting point of 119 °C. Further, at human mGluR2 receptor, the EC50 is 501 nM.
